Counter-ions that a name gives are not always drawn. Like-named read-outs stand apart in the source and are kept apart here.
Key:
Type in all cases: physicochemical
[1] = Thermal analysis TGA/DSC (Tables 12 and 13); conditions: 10° C./minute heating rate
Protocol: Thermogravimetric Analysis (“TGA”) (Table 12): Thermogravimetric analysis was conducted using a Discovery TGA (TA instruments) thermogravimetric analyzer. Samples of approximately 10 mg were weighed into aluminum pans and heated from ambient to 300° C. at 10° C./minute heating rate under nitrogen purge (10 mL/min for both sample chamber and balance).
Differential Scanning Calorimetry (“DSC”) (Table 12): DSC measurements were performed with Discovery DSC (TA instruments) equipped with a refrigerated cooling accessory. All the experiments were performed in standard/Tzero aluminum pans. The cell constant was determined using indium and temperature calibration was performed using indium and tin as standards. All the measurements were done under continuous dry nitrogen purge (50 mL/min). Approximately 1-5 mg of solid sample was weighed into a Tzero aluminum pan, sealed non-hermetically and heated from 0° C. to 250° C. at 10° C./min heating rate. The experimental data were analyzed using commercially available software (TA Universal Analysis 2000/Trios software, TA Instruments).
TGA/DSC (Table 13): A Simultaneous DSC/TGA instrument was used for the thermal analysis. Approximately 3.2 mg of the API was placed in an aluminum Tzero DSC pan was loaded into the instrument via autosampler. The sample was equilibrated to 35° C. in the instrument prior to analysis and was ramped to 400° C. at a ramp rate of 10° C./min. Dry nitrogen gas from the in-house supply was used.

[2] = Chemical stability (HPLC) after storage at 70° C.
Protocol: Sample Preparation (Table 12): Crystalline (S)-1′-(6-((2-amino-3-chloropyridin-4-yl)thio)-1,2,4-triazin-3-yl)-1,3-dihydrospiro[indene-2,4′-piperidin]-1-amine free base hemihydrate (Form 1)—Control: Compound (15.46 mg) was weighed into a 50 mL amber volumetric flask. Methanol (approximately 35 mL) was added to the flask, sonicated 4 minutes with intermittent swirling, equilibrated to room temperature, brought to volume with methanol and mixed well with repeated inversions of the flask. Crystalline (S)-1′-(6-((2-amino-3-chloropyridin-4-yl)thio)-1,2,4-triazin-3-yl)-1,3-dihydrospiro[indene-2,4′-piperidin]-1-amine free base hemihydrate (Form 1)—70° C./5% relative humidity (“RH”)/1 week: Compound (14.83 mg) was weighed into a 50 mL amber volumetric flask. Methanol (approximately 35 mL) was added to the flask, sonicated 4 minutes with intermittent swirling, equilibrated to room temperature, brought to volume with methanol and mixed well with repeated inversions of the flask. Crystalline (S)-1′-(6-((2-amino-3-chloropyridin-4-yl)thio)-1,2,4-triazin-3-yl)-1,3-dihydrospiro[indene-2,4′-piperidin]-1-amine free base hemihydrate (Form 1)—70° C./75% RH/1 week: Compound (14.99 mg) was weighed into a 50 mL amber volumetric flask. Methanol (approximately 35 mL) was added to the flask, sonicated 4 minutes with intermittent swirling, equilibrated to room temperature, brought to volume with methanol and mixed well with repeated inversions to the flask.
Chemical stability (HPLC) (Table 12): A Waters Acquity H-Class instrument was used with a Waters XSelect HSS T3 Column (100 angstrom, 4.6×150 mm, 5 μm). The column temperature was set to 20° C., the UV wavelength set to 254 nm, the injection volume was 10 μL, with a flow rate of 1.0 mL/min. 10 mM ammonium acetate adjusted to pH 4.8 was used as a mobile phase A, and acetonitrile was used as mobile phase B. The gradient method was set up to achieve 15% mobile phase B at 0 minutes, 95% mobile phase B at 17 minutes—held until 22 minutes, 15% mobile phase.
70° C./75% RH Sample: about 20 mg of crystalline anhydrous (S)-1′-(6-((2-amino-3-chloropyridin-4-yl)thio)-1,2,4-triazin-3-yl)-1,3-dihydrospiro[indene-2,4′-piperidin]-1-amine mono succinate salt Form 1 was placed in an open amber vial in the 70° C./75% RH chamber 70° C./5% RH Sample: about 20 mg crystalline anhydrous (S)-1′-(6-((2-amino-3-chloropyridin-4-yl)thio)-1,2,4-triazin-3-yl)-1,3-dihydrospiro[indene-2,4′-piperidin]-1-amine mono succinate salt Form 1 was placed in a closed amber vial with the cap taped in a 70° C. chamber with uncontrolled humidity […]

[3] = Dynamic vapor sorption, hygroscopicity (Tables 12 and 13); conditions: DVS
Protocol: Dynamic Vapor Sorption (“DVS”) (Table 12): The microbalance was calibrated using a 100 mg standard weight. The relative humidity sensor was calibrated at 5.0, 11.3, 32.8, 52.8, 75.3, and 84.3% RH (25° C.) using saturated salt solutions, as well as 80% RH (25° C.) using polyvinylpyrrolidone. 8-10 mg of the powder sample was placed in the platinum sample pan. There is no drying step with this method. The RH is first maintained at 30% RH, then decreased to 10% RH, and then 3% RH using the criteria of moving on when the weight change of the sample was <0.001 wt % in 5 min or after reaching a maximum equilibration time of 60 minutes. […] Again, the attainment of equilibrium was assumed when the weight change of the sample was <0.001 wt % in 5 min or by a maximum equilibration time of 120 minutes.
DVS (Table 13): Water sorption and desorption were analyzed with a DVS-Resolution. The microbalance is calibrated with a 100 mg standard weight on a monthly basis. About 5 mg of API was added to a translucent sample pan and placed inside chamber A of the DVS-Resolution. Percent relative humidity was held at 0% for 1 hour, and increased to 90% in 10% increments, then ramped back to 0% in 10% increments.

Row | Structure (SMILES) | Decomposition Onset (° C.) [1] | Dehyradtion Onset (° C.) [1] | Chemical Stability (70° C./5% RH), decrease in purity ([2]; 70° C./5% RH, HPLC) | Chemical Stability (70° C./75% RH), decrease in purity ([2]; 70° C./75% RH, HPLC) | Hygroscopity [3] | Chemical Stability (70° C./5% RH), decrease in purity [2] | Chemical Stability (70° C./75% RH), decrease in purity [2] | Hygroscopity, weight gain ([3]; up to 90% relative humidity)
1 | Nc1nccc(Sc2cnc(N3CCC4(CC3)Cc3ccccc3[C@H]4N)nn2)c1Cl.Nc1nccc(Sc2cnc(N3CCC4(CC3)Cc3ccccc3[C@H]4N)nn2)c1Cl.O [Example 2, (S)-1′-(6-((2-amino-3-chloropyridin-4-yl)thio)-1,2,4-triazin-3-yl)-1,3-dihydrospiro[indene-2,4′-piperidin]-1-amine Free Base Hemihydrate (Form 1)] | ~240 °C | ~72 °C | 0.25% decrease in purity | 0.09% decrease in purity | Non-hygroscopic at 25 °C and exhibits less |  |  | 
2 | Nc1nccc(Sc2cnc(N3CCC4(CC3)Cc3ccccc3[C@H]4N)nn2)c1Cl [Example 3, (S)-1′-(6-((2-amino-3-chloropyridin-4-yl)thio)-1,2,4-triazin-3-yl)-1,3-dihydrospiro[indene-2,4′-piperidin]-1-amine Mono Succinate Salt Form 1] | ~180 °C |  |  |  | not hygroscopic | 0.13% decrease in purity | 0.19% decrease in purity | 0.9%
